Patent US8450366B2, “Isobenzofuran analogs of sclerophytin A” (Board of Trustees of the University of Arkansas, priority 2009, dated 2013)
Values after ≈ are worked out from the molar mass of the structure shown. Values joined by “and” are separate entries in the source; they are usually repeats but may differ in a detail not shown here. Equal values may be shown once. Read-outs that look alike come from different tables or passages of the source.

How the values were obtained:
[1] = tested on: KB-3 human carcinoma cell line; test: MTT colorimetric assay of KB-3 cell viability; format: cell-based; conditions: for IC50: KB-3 cells, 96 h treatment, triplicate, read-out: IC50, inhibition of KB-3 cell survival assessed by MTT viability assay
Description: The human KB-3 carcinoma cell line was used to perform the MTT colorimetric assay of cell viability.(22-24) Cells were treated with increasing concentrations of compounds to assess their growth inhibitory properties. IC50 values (concentration of the drug required to reduce cell viability by 50%) ranged from 1 to >100 μM (Table 1).
Inhibition of cell proliferation was assessed by the MTT assay. This assay is based on the ability of a mitochondrial dehydrogenase enzyme from viable cells to cleave the tetrazolium rings of the pale yellow 3-(4,5-dimethylthiazol-2-yl)-2,5-diphenyltetrazolium bromide (MTT) and form a dark blue formazan crystal product which is largely impermeable to cell membranes, thus resulting in its accumulation within healthy cells.(22) Solubilization of the cells by the addition of solvent results in the liberation of the crystals which are solubilized. The level of the formazan product created is directly proportional to the number of living cells.(23,24)
All stock solutions of compounds were made at 10 mM in dimethyl sulfoxide (DMSO). DMSO and MTT were from Sigma Chemical Co. (St. Louis, Mo.). Cell culture reagents were obtained from Life Technologies (Carlsbad, Calif.). The KB-3 human carcinoma cell line was maintained in monolayer culture at 37° C. and 5% CO2 in Dulbecco's Modified Eagle's Medium, supplemented with 10% fetal bovine serum, 2 mM L-glutamine, 50 units/mL penicillin, and 50 μg/mL streptomycin.
KB-3 cells (2000/well) were plated in 96-well dishes, and after 24 h were treated with 0.1 nM-100 μM of the compound in question. […] After 96 h, cells were incubated with 50 μg MTT/well/0.2 mL for 4 h at 37° C., the media was removed, and the formazan crystals were dissolved in 0.15 mL of DMSO. Absorbance at 570 nm was measured with an ELx800™ Microplate Reader (Bio Tek Instruments, Inc., Winooski, Vt.). All treatments were performed in triplicate. Results are shown in FIGS. 1A-D as a percentage of control samples (mean±SD). IC50 is the concentration that reduced survival to 50% of the control (no drug).

entire leukemia panel = test: NCI 60-cell line single dose assay, leukemia panel; format: cell-based
[2] = tested on: NCI-H522 non-small cell lung cancer cell line; test: NCI 60-cell line single dose assay, NCI-H522; format: cell-based
[3] = tested on: RPMI-8226 leukemia cell line; test: NCI 5-dose testing, RPMI-8226; format: cell-based; conditions: 5-dose testing, read-out: LC50 (the source's name)
[4] = tested on: HOP-92 non-small cell lung cancer cell line; test: NCI 5-dose testing, HOP-92; format: cell-based; conditions: 5-dose testing, read-out: LC50 (the source's name)
60-cell line screening = test: NCI Developmental Therapeutics 60-cell line screening, single dose; format: cell-based; conditions: NCI 60-cell line screening
[5] = reported in the literature; cited from earlier work
[6] = tested on: RPMI-8226 leukemia cell line; test: NCI 60-cell line single dose assay, RPMI-8226; format: cell-based
[7] = tested on: PC-3 prostate cancer cell line; test: NCI 60-cell line single dose assay, PC-3; format: cell-based
L1210 cell line = conditions: reported, cited from earlier work

Question: Which IC50 [1] does the source give for `C=C(C)[C@H]1CC(=O)C(C)=C2[C@@H](C(=O)OCC)O[C@@H](c3ccccc3Br)[C@@H]21` [Compound 6a] here?
Answer: ~70 µM and 70 µM

Question: Which IC50 [1] does the source give for `C=C(C)C1CC=C(C)C2=COC(c3ccccc3Br)C21` (centres unmarked) [Compound 10a] here?
Answer: 4 µM

Question: For `C=C(C)[C@H]1CC(=O)C(C)=C2[C@@H](C(=O)OCC)O[C@@H](c3cccc(Cl)c3Cl)[C@@H]21` [Compound 6c], which IC50 [1] is on record?
Answer: 5 µM

Question: Which IC50 [1] does the source give for `C=C(C)C1CC=C(C)C2=COC(c3ccco3)C21` (centres unmarked) [Compound 10g] here?
Answer: 2 µM

Question: For `C=C(C)[C@H]1CC=C(C)[C@@]2(O)[C@@H]1[C@H](c1ccccc1Br)O[C@@H]2C(=O)OCC` [Compound 5a], which IC50 [1] is on record?
Answer: ~20 µM and 20 µM

Question: Which IC50 [1] does the source give for `C=C(C)[C@H]1CC=C(C)[C@@]2(O)[C@@H]1[C@H](c1ccccc1Br)O[C@@H]2C(=O)OCC1CCCC1` [Compound 5a.iii] here?
Answer: > 100 µM

Question: Which IC50 [1] does the source give for `C=C(C)[C@H]1CC=C(C)[C@@]2(O)[C@@H]1[C@H](c1ccccc1Br)O[C@@H]2C(=O)O` [Compound 9] here?
Answer: > 100 µM

Question: With `C=C(C)[C@H]1CC=C(C)[C@@]2(O)[C@@H]1[C@H](c1cccc(Cl)c1Cl)O[C@@H]2C(=O)OCC` [Compound 5c] as the molecule, how does the IC50 [1] read?
Answer: 5 µM

Question: With `C=C(C)[C@H]1CC=C(C)[C@@]2(O)[C@@H]1[C@H](c1ccccc1Br)O[C@@H]2C(=O)OCC1CC1` [Compound 5a.ii] as the molecule, how does the IC50 [1] read?
Answer: 50 µM

Question: Which IC50 [1] does the source give for `C=C(C)C1CC=C(C)C2=COC(c3ccccc3F)C21` (centres unmarked) [Compound 10h] here?
Answer: 1 µM

Question: What about the “differential activity, single dose” value (entire leukemia panel) of the same molecule?
Answer: significant differential activity

Question: And the “differential activity, single dose” value [2]?
Answer: significant differential activity

Question: What about the CC50 [3] of the same molecule?
Answer: 9.36 µM

Question: And the CC50 [4]?
Answer: 26.8 µM

Question: Which IC50 [1] does the source give for `C=C(C)[C@H]1CC(=O)C(C)=C2[C@@H](C(=O)OCC)O[C@@H](c3cccc(Br)c3)[C@@H]21` [Compound 6b] here?
Answer: 30 µM

Question: With `C=C(C)[C@H]1CC=C(C)[C@@]2(O)[C@@H]1[C@H](c1ccc(Cl)cc1Cl)O[C@@H]2C(=O)OCC` [Compound 5d] as the molecule, how does the IC50 [1] read?
Answer: 3 µM

Question: And the “activity in single dose assays” value (60-cell line screening)?
Answer: no significant activity

Question: For sarcodictyin B [sarcodictyins B], which anti-mitotic activity [5] is on record?
Answer: taxol-like anti-mitotic activity

Question: Which IC50 [1] does the source give for `C=C(C)[C@H]1CC=C(C)[C@@]2(O)[C@@H]1[C@H](c1cccc(Br)c1)O[C@@H]2C(=O)OCC` [Compound 5b] here?
Answer: 3 µM

Question: With `COC(=O)/C1=C/[C@@H]2[C@@H](C(C)C)CC=C(C)[C@@H]2C[C@H](OC(=O)/C=C/c2cn(C)cn2)[C@]2(C)C=C[C@@]1(O)O2` [sarcodictyins A, sarcodictyin A] as the molecule, how does the anti-mitotic activity [5] read?
Answer: taxol-like anti-mitotic activity

Question: Which IC50 [1] does the source give for `C=C(C)[C@H]1CC=C(C)[C@@]2(O)[C@@H]1[C@H](c1ccccc1Br)O[C@@H]2C(=O)OC` [Compound 5a.i] here?
Answer: 5 µM

Question: With `C=C(C)[C@H]1CC=C(C)[C@@]2(O)[C@@H]1[C@H](c1cccc3ccccc13)O[C@@H]2C(=O)OC` [Compound 5e] as the molecule, how does the “fold more active than the corresponding diene 10e” value ([1]; KB-3 IC50, entry 8 vs. entry 18) read?
Answer: at least 10 fold

Question: And the IC50 [1]?
Answer: 10 µM

Question: Which IC50 ([1]; Homo sapiens, KB3) does the source give for `C=C(C)[C@H]1CC=C(C)[C@@]2(O)[C@@H]1[C@H](c1cccc[n+]1C)O[C@@H]2C(=O)OC` [Compound 5i] here?
Answer: > 100 µM

Question: Which IC50 ([1]; Homo sapiens, KB3) does the source give for `C=C(C)[C@H]1CC=C(C)[C@@]2(O)[C@@H]1[C@H](c1ccccn1)O[C@@H]2C(=O)OC` [Compound 5f] here?
Answer: 100 µM

Question: With `C=C(C)[C@H]1CC(=O)C(C)=C2[C@@H](C(=O)OCC)O[C@@H](c3ccc(Cl)cc3Cl)[C@@H]21` [Compound 6d] as the molecule, how does the IC50 [1] read?
Answer: 3 µM

Question: And the “differential activity, single dose” value [6]?
Answer: significant differential activity

Question: What about the “differential activity, single dose” value [7] of the same molecule?
Answer: significant differential activity

Question: Which IC50 (L1210 cell line; value in brackets, read-out: IC50, growth inhibitory activity against L1210) does the source give for `C=C1CC[C@H](C(C)C)[C@@H]2[C@H]1[C@H]1C[C@](C)(O)[C@@H](O)CC[C@@](C)(O)[C@@H]2O1` [Sclerophytin A] here?
Answer: 0.003 µM

Question: What about the “IC50, growth inhibitory activity against L1210” value (L1210 cell line) of the same molecule?
Answer: 1.0 ng/mL (≈ 2.95 nM)

Question: For `C=C(C)C1CC=C(C)C2=COC(c3cccc4ccccc34)C21` (centres unmarked) [Compound 10e], which IC50 [1] is on record?
Answer: > 100 µM

Question: For `CO[C@]12C=C[C@](C)(O1)[C@@H](OC(=O)/C=C/c1cn(C)cn1)C[C@H]1C(C)=CC[C@H](C(C)C)[C@H]1/C=C\2CO[C@@H]1OC[C@@H](O)[C@@H](O)[C@@H]1OC(C)=O` [Eleutherobin], which anti-mitotic activity [5] is on record?
Answer: taxol-like anti-mitotic activity
